Experimental findings from US9693997B2, “Antiviral compounds” (priority 2013, dated 2017) are described below.

Holding throughout (experiment): microbe, parasite or virus in culture
In experiment [1] the test system is pseudotyped VSV G particles (VSVpp) in Huh7-high CD81 cells. It counts as cell-based, vesicular stomatitis virus. Particulars: Vesicular stomatitis virus, 72 h, read-out: VSVpp (EC50, μM).
Experiment [2] deals with Pseudotyped HCV GT1a particles (HCVpp), entry into Huh7-high CD81 cells. It is filed as cell-based, HCV GT1a H77 strain. The conditions noted are these: Hepatitis C virus, 72 h, read-out: HCVpp GT-1a (EC50, μM).
For experiment [3], the system named is Pseudotyped HCV GT1b particles (HCVpp), entry into Huh7-high CD81 cells. It counts as cell-based, HCV GT1b Con1 strain. Particulars: Hepatitis C virus, GT1B, 72 h, read-out: HCVpp GT-1b (EC50, μM).

A word on the EC50: it is the concentration giving half of the maximal effect. For the molecule `Nc1nc(Nc2cc(Cl)c(-c3ccccc3F)c(Cl)c2)n[nH]1` [Compound 287, N3-(2,6-dichloro-2′-fluorobiphenyl-4-yl)-1H-1,2,4-triazole-3,5-diamine], the EC50 in experiment [1] turned out to be 13 µM; in experiment [2], 0.005 µM; in experiment [3] it was 0.366 µM.

For the molecule `Nc1nc(Nc2cc(Cl)c(-c3ccc(N4CCCS4(=O)=O)cc3)c(Cl)c2)n[nH]1` [Compound 289, N-3-[2,6-Dichloro-4′-(1,1-dioxo-1,6-isothiazolidin-2-yl)-biphenyl-4-yl]-1H-[1,2,4]triazole-3,5-diamine], the EC50 in experiment [1] came to 17.8 µM; in experiment [2] it was 0.002 µM; in experiment [3], 0.046 µM.
